Data on 16 molecules can be found in patent US6780976B2, “Enone reductases, methods for producing same, and methods for selectively reducing a carbon-carbon double bond of an alpha,beta-unsaturated ketone using the reductases” (Daicel Chemical Industries, Ltd., priority 2001, dated 2004).

The subject of data set [1] is E. coli HB 101 strain without the plasmid. Briefly: Activity of bacterial cell extract of host only (E. coli HB101 without the plasmid) to various substrates. In kind it is biochemical. How it is done: (§1) A reaction mixture containing 50 mM potassium phosphate buffer (pH 6.5), 0.2 mM NADPH, 20 mM methyl vinyl ketone, and the enzyme is reacted at 30° C., and the decrease in absorbance at 340 nm, which is associated with the decrease of the amount of NADPH, is measured. 1 U is defined as the amount of enzyme catalyzing a decrease of 1 μmol NADPH in one minute. Quantitative analysis of the polypeptide is conducted by pigment binding methods using the protein assay kit (Bio-Rad Laboratories Inc.).
(§2) The bacterial cells were harvested by centrifugation, and then, were suspended in 50 mM potassium phosphate buffer (pH8.0) containing 0.02% 2-mercaptoethanol, 2mM PMSF, and 10% glycerin. The cells were treated in a closed-chamber sonicator UCD-200TM (Cosmo Bio) for 3 minutes to crush the cells. The bacterial cell lysate was centrifuged and the supernatant was recovered as bacterial cell extract. The extract was assayed for activities to various types of substrates. In addition, E. coli HB 101 strain without the plasmid was cultured overnight in LB culture medium. 0.1 mM IPTG was added to the culture, and then, was further cultured for 4 hours. The bacterial cells were crushed by the same method as above, and the extract was assayed for the activities to various types of substrates.

Data set [2] deals with enone reductase. In words: Activity of bacterial cell extract of E. coli HB101 (pSE-KLR1) expressing recombinant enone reductase to various substrates. Type of data set: biochemical, Kluyveromyces lactis. As to conditions: for Relative activity: methyl vinyl ketone = 100. How it is done:
as §1
E. coli HB101 strain, transformed with plasmid pSE-KLR1 expressing the enone reductase, was cultured overnight in liquid LB medium containing ampicillin at 30° C. 0.1 mM IPTG was added to the culture, and then, was further cultured for 4 hours.
as §2

The test system of data set [3] is enone reductase. In words: Substrate specificity of purified enone reductase. As to conditions: enzyme obtained in Example 1. In kind it is biochemical, Kluyveromyces lactis. How it is done: A reaction mixture containing 50 mM potassium phosphate buffer (pH 6.5), […], 20 mM methyl vinyl ketone, and the enzyme is reacted at 30° C., and the decrease in absorbance at 340 nm, which is associated with the decrease of the amount of NADPH, is measured. 1 U is defined as the amount of enzyme catalyzing a decrease of 1 μmol NADPH in one minute. Quantitative analysis of the polypeptide is conducted by pigment binding methods using the protein assay kit (Bio-Rad Laboratories Inc.).
The enzyme obtained in Example 1 was reacted with various enones, ketones, and aldehydes, and the dehydrogenation activity was assayed. The result was represented by a relative activity, taking the dehydrogenation activity of the enzyme on methyl vinyl ketone as 100, and the results are shown in Table 2.

The nature of data set [4]: Enone reductase activity of cell-free extracts of E. coli JM109 expressing the homologues YNN4, YL60, YCZ2. In kind it is biochemical. The conditions noted are these: E. coli JM109 with pSE-YNN4, pSE-YL60 or pSE-YCZ2; 0.1 mM IPTG, 4 hours. How it is done:
as §1
E. coli JM109 strains, each containing pSE-YNN4, pSE-YL60 or pSE-YCZ2, were cultured in LB culture medium containing ampicillin. The induction of the enzyme was achieved by adding 0.1 mM IPTG and culturing for 4 hours. The bacterial cells were harvested by centrifugation. Respective bacterial cells were suspended in cell lysis buffer (50 mM KPB (pH 8.0), 1 mM EDTA, 0.02% 2-ME, 2 mM PMSF, and 10% glycerol); and the cells were lysed in a sonicator. The supernatant prepared by centrifugation was used as the cell-free extract.
Each of the cell-free extract was assayed for the enone reductase activity. […] Thus, it was verified that all of the three types of homologues of the enzyme of the present invention had the requisite enone reductase activity.

The nature of data set [5]: Methyl vinyl ketone-reducing activity of the purified enzyme (specific activity, pH and temperature dependency). The conditions noted are these: after Phenyl-Superose, NADPH. Type of data set: biochemical. As to the method: as §1
Specific activity of the purified enzyme was about 31.7 U/mg.
The methyl vinyl ketone-reducing activity of the enzyme obtained in Example 1 was tested, by altering the pH of the reaction with potassium phosphate buffer and Britton Robinson buffer. The optimal pH for the reaction was determined to be 6.5 to 7.0.
The methyl vinyl ketone-reducing activity of the enzyme obtained in Example 1 was assayed under standard reaction conditions, with the exception that only the temperatures were altered. The optimal temperature was 37 to 45° C.

[6] abbreviates: coenzyme NADH, activity on methyl vinyl ketone (NADPH) taken as 100.
Setting [7] is: coenzyme NADPH, activity on methyl vinyl ketone taken as 100.

Take `C=CC(C)=O` [Methyl vinyl ketone]: the results for the Specific activity (in data set [1]; in the data set with enone reductase [2]) were 0.066 U/mg and 7.78 U/mg, respectively. The Relative activity is reported as 100% in the data set on enone reductase [2], 14% in the data set with enone reductase [3] (setting [6]) and 100% with enone reductase [3] (setting [7]).

Take `CC(=O)C=O` [Methylglyoxal]: in the data set on enone reductase [3] (setting [7]), the Relative activity amounted to 1%. Still for that read-out and setting: the figure for `CC(=O)c1ccccc1` [Acetophenone] is 0%; for `CCC(C)=O` [2-butanone] it is 0%. For `CC=CC(C)=O` [3-pentene-2-one], the Specific activity in data set [1] came to 0.015 U/mg; with enone reductase [2], 1.23 U/mg. Moreover, the Relative activity with enone reductase [2] was determined as 15.9%; with enone reductase [3] (setting [7]) it was 16%.

With `CC1=CC(=O)CC1` [3-methyl-2-cyclopenten-1-one], the Relative activity in the data set with enone reductase [3] (setting [7]) was found to be 0%. The same measure, in the same setting: the result for `CC(=O)C(C)=O` [2,3-butanedione] reads 1%.

On to `C=CC(=O)CC` [Ethyl vinyl ketone], for which the Specific activity in data set [1] came out at 0.073 U/mg; in the data set with enone reductase [2], 41.8 U/mg. In addition, the Relative activity in the data set on enone reductase [3] (setting [6]) stood at 52%; with enone reductase [3] (setting [7]), 537%.

As to `CC1=CCCC1=O` [2-methyl-2-cyclopenten-1-one], the Relative activity in the data set on enone reductase [3] (setting [7]) was determined as 0%.

For `C/C=C/C(=O)O` [Crotonic acid], the Relative activity with enone reductase [3] (setting [7]) was found to be 0%. The same measure, in the same setting: the figure for `CC(=O)C=C(C)C` [4-methyl-3-pentene-2-one] is 1%. `CC=C(C)C(C)=O` [3-methyl-3-pentene-2-one]: the figures for the Specific activity (in data set [1]; in the data set on enone reductase [2]) were 0.004 U/mg and 2.52 U/mg, respectively. For the same molecule, the Relative activity in the data set with enone reductase [2] was 32.4%; in the data set with enone reductase [3] (setting [7]) it was 48%.

B1: YL60: Saccharomyces cerevisiae enone reductase homologue, SEQ ID NO:6, expressed in E. coli from pSE-YL60 (protein)
chain: MAQVAIPETMKAVVIEDGKAVVKEGIPIPELEEGFVLIKTLAVAGNPTDWAHIDYKIGPQGSILGCDAAGQIVKLGPAVNPKDFSIGDYIYGFIHGSSVRFPSNGAFAEYSAISTVVAYKSPNELKFLGEDVLPAGPVRSLEGVATIPVSLTTAGLVLTYNLGLDLKWEPSTPQRKGPILLWGGATAVGQSLIQLANKLNGFTKIIVVASRKHEKLLKEYGADELFDYHDIDVVEQIKHKYNNISYLVDCVANQDTLQQVYKCAADKQDATIVELKNLTEENVKKENRRQNVTIDIIRLYSIGGHEVPFGNITLPADSEARKAAIKFIKFINPKINDGQIRHIPVRVYKNGLCDVPHILKDIKYGKNSGEKLVAVLN
With B1, in data set [4], the “Enone reductase activity of cell-free extract” value is recorded as 0.198 U/mg protein.

B2: YCZ2: Saccharomyces cerevisiae enone reductase homologue, SEQ ID NO:8, expressed in E. coli from pSE-YCZ2 (protein)
chain: MKAVVIEDGKAVVKEGVPIPELEEGFVLIKTLAVAGNPTDWAHIDYKVGPQGSILGCDAAGQIVKLGPAVDPKDFSIGDYIYGFIHGSSVRFPSNGAFAEYSAISTVVAYKSPNELKFLGEDVLPAGPVRSLEGAATIPVSLTTAGLVLTYNLGLNLKWEPSTPQRNGPILLWGGATAVGQSLIQLANKLNGFTKIIVVASRKHEKLLKEYGADQLFDYHDIDVVEQIKHKYNNISYLVDCVANQNTLQQVYKCAADKQDATVVELTNLTEENVKKENRRQNVTIDRTRLYSIGGHEVPFGGITFPADPEARRAATEFVKFINPKISDGQIHHIPARVYKNGLYDVPRILEDIKIGKNSGEKLVAVLN
As to B2, the “Enone reductase activity of cell-free extract” value in data set [4] was 0.133 U/mg protein.

B3: YNN4: Saccharomyces cerevisiae enone reductase homologue, SEQ ID NO:4, expressed in E. coli from pSE-YNN4 (protein)
chain: MSASIPETMKAVVIENGKAVVKQDIPIPELEEGFVLIKTVAVAGNPTDWKHIDFKIGPQGALLGCDAAGQIVKLGPNVDAARFAIGDYIYGVIHGASVRFPSNGAFAEYSAISSETAYKPAREFRLCGKDKLPEGPVKSLEGAVSLPVSLTTAGMILTHSFGLDMTWKPSKAQRDQPILFWGGATAVGQMLIQLAKKLNGFSKIIVVASRKHEKLLKEYGADELFDYHDADVIEQIKKKYNNIPYLVDCVSNTETIQQVYKCAADDLDATVVQLTVLTEKDIKEEDRRQNVSIEGTLLYLIGGNDVPFGTFTLPADPEYKEAAIKFIKFINPKINDGEIHHIPVKVYKNGLDDIPQLLDDIKHGRNSGEKLVAVLK
Regarding B3, in data set [4], the “Enone reductase activity of cell-free extract” value turned out to be 0.268 U/mg protein.

B4: enzyme obtained in Example 1: NADPH-dependent enone reductase purified from Kluyveromyces lactis IFO 1267; amino acid sequence SEQ ID NO:2 (protein)
chain: MSVPTTQKAVIIEGDKAVVKTDVSVPELKEGTALVKVEAVAGNPTDWKHIAYKIGPEGSILGCDIAGTVVKLGPNASTDLKVGDTGFGFVHGASQTDPKNGAFAEYARVYPPLFYKSNLTHSTADEISEGPVKNFESAASLPVSLTTAGVSLCHHLGSKMEWHPSTPQHTHPLLIWGGATAVGQQLIQVAKHINAYTKIVTVASKKHEKLLKSYGADDVFDYHDAGVIEQIKSKYPNLQHVIDAVGSEDSIPEAYKVTADSLPATLLEVVPMTIESIPEEIRKDNVKIDITLLYRASGQEILLGATRFPASPEYHEATVKFVKFINPHLNNGDIHHMNIKVFSNGLDDVPALTEGIKEGKNKNVKYVARL
For B4, the “Specific activity of the purified enzyme” value in data set [5] is recorded as “about 31.7 U/mg”.
